Data: US7259154B2, “Pyrrolopyrimidines” (Aventis Pharmaceuticals Inc., priority 2001, dated 2007)

melting point [°C]	SMILES
184	COc1ccc2c(c1)c(-c1cc3c(OC)ncnc3[nH]1)cn2C [Example 10, 4-Methoxy-6-(5-methoxy-1-methyl-1H-indol-3-yl)-7H-pyrrolo[2,3-d]pyrimidine]
> 260	COc1ccc2[nH]cc(-c3cc4c(OC)ncnc4[nH]3)c2c1 [Example 11, 4-Methoxy-6-(5-methoxy-1H-indol-3-yl)-7H-pyrrolo[2,3-d]pyrimidine]
